Patent US4199573A, “Diazaborines and drug compositions” (Grunenthal GmbH, priority 1978, dated 1980)
In brackets after ≈: the same amount, converted by molar mass. Like-named read-outs stand apart in the source and are kept apart here.

Tests used:
[1] = system: E. coli; assay: Mice infected with E. coli, CD50 (Tables I, II, IV); assay type: in vivo; conditions: Escherichia coli
Procedure: (§1) Typical of the compounds of the class are very active antimicrobial agents, especially against gram-negative bacteria, in particular E. coli. For instance, the following values of the CD50 were determined on administering the listed compounds of formula I, in which R1 is as defined in the following Table I, Antimicrobial Activity, R2 and R3 are hydrogen and wherein R4 is sodium to mice infected with the bacteria shown.
(§2) CD50 = Dose in mg of compound/kg of mouse body weight which cures th
(§3) infection in 50% of the animals

[2] = system: Klebsiella aeruginosa; assay: Minimum inhibitory concentration, Klebsiella aeruginosa; assay type: cell-based
[3] = system: Proteus mirabilis; assay: Minimum inhibitory concentration, Proteus mirabilis; assay type: cell-based
[4] = system: S. typhimurium; assay: Minimum inhibitory concentration, S. typhimurium; assay type: cell-based; conditions: Salmonella enterica
[5] = system: Proteus vulgaris; assay: Minimum inhibitory concentration, Proteus vulgaris; assay type: cell-based
[6] = system: E. coli; assay: Minimum inhibitory concentration, E. coli; assay type: cell-based; conditions: Escherichia coli
[7] = system: Proteus vulgaris; assay: Mice infected with Proteus vulgaris, CD50 (Table II); assay type: in vivo; conditions: read-out: DC50 (the source's name)
Description: as §2, §3

[8] = system: Proteus mirabilis; assay: Mice infected with Proteus mirabilis, CD50 (Table II); assay type: in vivo; conditions: read-out: DC50 (the source's name)
Description: as §2, §3

[9] = system: Klebsiella aeruginosa; assay: Mice infected with Klebsiella aeruginosa, CD50 (Table II); assay type: in vivo; conditions: read-out: DC50 (the source's name)
Description: as §2, §3

[10] = system: Klebsiella pneumoniae; assay: Mice infected with Klebsiella pneumoniae, CD50; assay type: in vivo
Procedure: as §1, §2, §3
(§4) The compounds of the invention also show effectiveness against other gram-negative bacteria.

[11] = system: B. proteus; assay: Mice infected with B. proteus, CD50; assay type: in vivo; conditions: Mus musculus
Procedure: as §1, §2, §3, §4

[12] = po, Table I, mice infected with E. coli, p.o., R4 = sodium, read-out: CD50 (the source's name)
[13] = sc, Table I, mice infected with E. coli, s.c., R4 = sodium, read-out: CD50 (the source's name)
[14] = sc, Table II, infected mice, E. coli, s.c., read-out: DC50 (the source's name)

CC(Cl)S(=O)(=O)N1N=Cc2ccccc2B1O (stereo not shown) [Compound 8]
ED50 [1, 12]: 17.7 mg/kg
ED50 [1, 13]: 14.8 mg/kg

C=CCS(=O)(=O)N1N=Cc2ccccc2B1O [Compound 6]
ED50 [1, 12]: 13.2 mg/kg
ED50 [1, 13]: 13.2 mg/kg

CCS(=O)(=O)N1N=Cc2ccccc2B1O [Compound 1]
ED50 [1, 12]: 11 mg/kg
ED50 [1, 13]: 9.8 mg/kg

Cc1ccc2c(c1)C=NN(S(=O)(=O)CC(C)C)B2O
MIC [2]: 2 µg/mL (≈ 7.14 µM)
MIC [3]: 8 µg/mL (≈ 28.6 µM)
MIC [4]: 8 µg/mL (≈ 28.6 µM)
MIC [5]: 4 µg/mL (≈ 14.3 µM)
MIC [6]: 2 µg/mL (≈ 7.14 µM)

CCCCCS(=O)(=O)N1N=Cc2ccccc2B1O [(CH2)4CH3, H]
MIC [2]: 8 µg/mL (≈ 28.6 µM)
MIC [3]: 32 µg/mL (≈ 114 µM)
MIC [4]: 16 µg/mL (≈ 57.1 µM)
MIC [5]: 32 µg/mL (≈ 114 µM)
MIC [6]: 32 µg/mL (≈ 114 µM)

Cc1ccc2c(c1)C=NN(S(=O)(=O)CCCCl)B2O [Compound 10]
ED50 ([7]; po): 8.6 mg/kg
ED50 ([7]; sc): 8.4 mg/kg
ED50 ([8]; po): 9.15 mg/kg
ED50 ([8]; sc): 7.45 mg/kg
MIC [2]: 1 µg/mL (≈ 3.33 µM)
ED50 ([1]; po, read-out: DC50): 9.8 mg/kg
ED50 [1, 14]: 8.8 mg/kg
MIC [3]: 4 µg/mL (≈ 13.3 µM)
MIC [4]: 1 µg/mL (≈ 3.33 µM)
ED50 ([9]; po): 9.15 mg/kg
ED50 ([9]; sc): 6.95 mg/kg
MIC [5]: 4 µg/mL (≈ 13.3 µM)
MIC [6]: 2 µg/mL (≈ 6.65 µM)

CCCCS(=O)(=O)N1N=Cc2ccccc2B1O [Compound 4]
ED50 [1, 12]: 11.2 mg/kg
ED50 [1, 13]: 5.85 mg/kg

CCCS(=O)(=O)N1N=Cc2ccccc2B1O [Compound 2]
MIC [2]: 8 µg/mL (≈ 31.7 µM)
ED50 [1, 12]: 7 mg/kg
ED50 [1, 13]: 6.7 mg/kg
ED50 ([10]; po): 11.3 mg/kg
ED50 ([10]; sc): 6.75 mg/kg
MIC [3]: 32 µg/mL (≈ 127 µM)
MIC [4]: 16 µg/mL (≈ 63.5 µM)
MIC [5]: 32 µg/mL (≈ 127 µM)
ED50 ([11]; per oral (p.o.)): 18.7 mg/kg
ED50 ([11]; sc, subcutaneous (s.c.)): 11.7 mg/kg
MIC [6]: 4 µg/mL (≈ 15.9 µM)

CCc1ccc2c(c1)C=NN(S(=O)(=O)CCCCl)B2O [CH2CH2CH2Cl, C2 H5]
MIC [2]: 2 µg/mL (≈ 6.36 µM)
MIC [3]: 2 µg/mL (≈ 6.36 µM)
MIC [4]: 2 µg/mL (≈ 6.36 µM)
MIC [5]: 4 µg/mL (≈ 12.7 µM)
MIC [6]: 4 µg/mL (≈ 12.7 µM)

CCCS(=O)(=O)N1N=Cc2cc(F)ccc2B1O [Compound 11]
ED50 ([7]; po): 13.9 mg/kg
ED50 ([7]; sc): 7.45 mg/kg
ED50 ([8]; po): 13.9 mg/kg
ED50 ([8]; sc): 7.45 mg/kg
MIC [2]: 8 µg/mL (≈ 29.6 µM)
ED50 ([1]; po, read-out: DC50): 6.95 mg/kg
ED50 [1, 14]: 5.65 mg/kg
MIC [3]: 4 µg/mL (≈ 14.8 µM)
MIC [4]: 8 µg/mL (≈ 29.6 µM)
ED50 ([9]; po): 5.65 mg/kg
ED50 ([9]; sc): 4.25 mg/kg
MIC [5]: 4 µg/mL (≈ 14.8 µM)
MIC [6]: 4 µg/mL (≈ 14.8 µM)

Nc1ccc(S(=O)(=O)N2N=Cc3ccccc3B2O)c(Cl)c1 [1-hydroxy-2(2'-chloro-4'-amino-phenylsulfonyl) benzo-2,3,1-diazaborine, reference compound]
ED50 ([1]; po, Table IV, comparative, E. coli, p.o., read-out: CD50 (the source's name)): 36 mg/kg
ED50 ([1]; sc, Table IV, comparative, E. coli, s.c., read-out: CD50 (the source's name)): 13.5 mg/kg

CC(C)S(=O)(=O)N1N=Cc2ccccc2B1O [Compound 3]
ED50 [1, 12]: 12.5 mg/kg
ED50 [1, 13]: 9.2 mg/kg

O=S(=O)(CCl)N1N=Cc2ccccc2B1O [Compound 7]
ED50 [1, 12]: 12.4 mg/kg
ED50 [1, 13]: 11.8 mg/kg

CC(C)CS(=O)(=O)N1N=Cc2ccccc2B1O [drawing 4]
MIC [2]: 4 µg/mL (≈ 15 µM)
MIC [3]: 16 µg/mL (≈ 60.1 µM)
MIC [4]: 4 µg/mL (≈ 15 µM)
MIC [5]: 16 µg/mL (≈ 60.1 µM)
MIC [6]: 8 µg/mL (≈ 30.1 µM)

O=S(=O)(CCCCl)N1N=Cc2cc(F)ccc2B1O [CH2CH2CH2 Cl, F]
MIC [2]: 8 µg/mL (≈ 26.3 µM)
MIC [3]: 16 µg/mL (≈ 52.5 µM)
MIC [4]: 4 µg/mL (≈ 13.1 µM)
MIC [5]: 8 µg/mL (≈ 26.3 µM)
MIC [6]: 16 µg/mL (≈ 52.5 µM)

CCCS(=O)(=O)N1N=Cc2cc(CC)ccc2B1O [CH2CH2CH3, C2 H5]
MIC [2]: 1 µg/mL (≈ 3.57 µM)
MIC [3]: 8 µg/mL (≈ 28.6 µM)
MIC [4]: 2 µg/mL (≈ 7.14 µM)
MIC [5]: 2 µg/mL (≈ 7.14 µM)
MIC [6]: 4 µg/mL (≈ 14.3 µM)

CC(C)CS(=O)(=O)N1N=Cc2ccccc2B1O [drawing 2]
ED50 ([1]; po, read-out: CD50): 8.85 mg/kg
ED50 ([1]; sc, read-out: CD50): 10.6 mg/kg

O=S(=O)(CCCCl)N1N=Cc2ccccc2B1O [Compound 9]
ED50 [1, 12]: 22.7 mg/kg
ED50 [1, 13]: 21.8 mg/kg
